Series [1] deals with human embryonic kidney (HEK-293) cells. Briefly: Cytotoxicity assay: human HEK-293 cell line (resazurin). In kind it is cell-based. The note with it: for IC50: Homo sapiens, HEK293, cytotoxicity, 72 h, read-out: IC50 [µM], HEK-293. As to the method: Cytotoxicity against human embryonic kidney (HEK-293) cells was assessed as previously described. […] Cells were detached using Accutase treatment, then seeded into black clear-bottom 384-wells fluorescence microplates (Greiner), at a cell density of 44,000 cells/mL in 45 µL/well, using a Benchtop liquid dispenser (Thermo Fisher Multidrop). After seeding, the cells were brought back to the incubator and allowed to settle and reattach overnight. […] Plates were incubated at the standard condition above for 72 h. At the end of the incubation the medium in each well was replaced with 1 mM resazurin, and the plates were read using a multilabel microplate reader (PerkinElmer Envision) at 530 nm excitation and 595 nm emission wavelengths after a further 6 h incubation. Inhibition data was generated using Office Excel 2013 (Microsoft). IC50 values were calculated by fitting a four-parameter nonlinear regression model using Prism v.6.0 (Graphpad Software Inc., La Jolla, CA, USA).
(Alamar Blue is a resazurin reagent that responds to reducing activity.)

Series [2] deals with THP-1 cells. Briefly: Cytotoxicity assay: human THP-1 cell line (Alamar Blue). Type of series: cell-based. The note with it: for IC50: Homo sapiens, THP-1, cytotoxicity, 48 h. How it is done: THP-1 cells were passed into fresh THP-1 culture medium. Cells were harvested by centrifugation (250×g, 10′, 4 °C), washed three times with RPMI 1640 medium, and diluted to 8 × 10^5 cells/mL. The cells were aliquoted in triplicate (125 μL/well) into 96-well flat-bottom plates containing compounds diluted in complete medium (125 μL/well, containing 0.01% DMSO). THP-1 cells in wells containing medium plus 0.01% DMSO served as negative controls. Cells were incubated with test compounds at 37 °C and 5% CO2 for 48 h prior to the addition of 10% Alamar Blue (25 μL/well). After an additional 4 h the fluorescence was read (λex = 544 nm, λem = 590 nm) using a microplate reader (Fluoroskan Ascent FL, Thermo Fisher Scientific, Waltham, MA, USA). Results were analysed using Prism 4 (GraphPad Software Inc., La Jolla, CA, USA). Experiments were performed in triplicate and were repeated at least twice.

Series [3] is described as follows: Aqueous thermodynamic solubility, miniaturized shake-flask method with HPLC. In kind it is physicochemical. The conditions noted are these: for solubility thermodynamic / solubility: aqueous phosphate buffer, 25 °C, pH 7.4, aqueous buffer, thermodynamic from solid. As to the method:
The aqueous solubility was determined using a miniaturized shake-flask-method. In brief, the compound (0.25–1.0 mg) was incubated in a Whatman Mini-Uniprep vial with aqueous phosphate buffer, pH 7.4, (300 µL) in an incubation shaker (IKA® KS 3000 ic control, Staufen, Germany) at 25 °C, 400 rpm. Presence of undissolved compound was checked at 24 and 48 h. After 24, 48, or 72 h of shaking, the filter plunger was punched into the vial and the concentration in the supernatant was determined by HPLC (AUC method, isocratic HPLC, at specific λmax as indicated in the Additional file 2). For the calibration, at least three different dilutions of the compounds from DMSO stock solutions diluted with ACN were quantified. Preparation of buffer pH 7.4: to a solution of Na2HPO4∙2 H2O (290 mg), K2HPO4 (20 mg) and NaCl (808 mg) in water (ad 100.0 mL), 12% aqueous HCl was added dropwise until the pH reached 7.4. In the case of 3a the concentration in the supernatant was below the limit of quantification. […] Further details of the solubility testing methods are described in Additional file 2, including calibration concentration ranges, composition of chromatographic eluents, and wavelength for measurement of absorbance.
Two stock solutions of each compound with a concentration of 10 mM (except for 8g: 1 mM) were prepared. Three dilutions with ACN were prepared (concentration range: 3d: 100 µM – […]
8g: 10 µM – 0.3 µM; 8k: 100 µM – 10 µM) from the stock solutions of the test compounds and measured as duplicates by HPLC (isocratic elution: solvent indicated in Additional file 2, Table, injection volume: indicated in Additional file 2, Table, flow rate: 1.000 mL/min, column temperature: 40 °C, time of detection: 8 min, detection by DAD at specific λmax as indicated in Additional file 2, Table). The area under the curve (% AUC) of the substance peak was determined and together with the respective concentration a linear calibration graph was created with Microsoft Excel (2010, Microsoft Corporation) for every compound.
Additional file 2, Table Af1: Solvents for isocratic elution, injection volumes and specific λmax […]
ID solvent injection volume [µL] λmax [nm]
Sample preparation and measurement of compound solubility
Samples of test compounds (0.25‐1.0 mg) were placed in Whatman‐Uni‐Prep® vials and aqueous phosphate buffer, pH 7.4 (300 µL, composition is indicated in Additional file 2, Table Af1) was added. The presence of undissolved compound was a requirement to determine the thermodynamic solubility. The vials were capped with the appropriate filter, […]
Additionally the vials were sealed with Parafilm M (Bemis Flexible Packaging, Neenah, WI, USA). The samples were incubated in an incubation shaker (IKA® KS 3000 ic control, Staufen, Germany) at 400 rpm and 25 °C for […]
24‐72 h. The presence of undissolved compound was checked at 24 and 48 h. Measurement of the samples was performed after 24 h, 48 h and 72 h; he filter plunger was punched into the vial and the concentration in the supernatant was determined by HPLC using the same methods as for the calibration solutions (Additional file 2, Table). All samples were measured in triplicate. By determination of the area under the curve (% AUC) of the substance and the specific linear calibration graph, the concentration of every compound in aqueous buffer solution was calculated. By comparison of the samples after 24 h and 48 h it was checked if equilibrium had been achieved after 24 h; if not, the samples were compared after 48 h and 72 h to check if equilibrium had been achieved after 48 h. In the case of 3a the concentration in the supernatant was below the limit of quantification. Therefore the lowest […]
Additional file 2, Table Af1: Composition of phosphate buffer pH 7.4 for determination of aqueous solubility. Modified according to Ph. Eur.8 […]
a Adjustment to pH 7.4 was carried out using a pH meter equipped with a glass electrode. […]
Lüddens, H., Synthesis of GABA A receptor agonists and evaluation of their α‐ […]

The mark [4] stands for this setting: aqueous buffer pH 7.4, shake flask.
Setting [5] is: thermodynamic solubility, aqueous buffer pH 7.4, 25 °C, equilibrium after 24 h (c) or 48 h (d) per footnote, read-out: S0, exp.
Where [6] appears, read: thermodynamic solubility, aqueous buffer pH 7.4, 25 °C, equilibrium after 24 h (c) or 48 h (d) per footnote.

Converted amounts (≈) assume the structure as drawn. Where two headings read alike, the source gives them in different places.

Take `c1coc(-c2nnc(Sc3ncnc4sccc34)o2)c1` [Compound 3a]: the IC50 was more than 10 µM in series [1] and 6.13 µM in series [2]. Besides, the “Log S0, exp” value in series [3] (setting [4]) is reported as less than −6.00. Besides, in series [3] (setting [5]), the solubility thermodynamic is less than 1 µM.
In the case of `Cn1ccnc1Sc1ncnc2sccc12` [Compound 8c], the IC50 in series [1] was more than 40 µM; in series [2] it was more than 300 µM. The solubility thermodynamic in series [3] (aqueous buffer pH 7.4, shake flask, read-out: Log S0, exp (converted)) is 1780 µM (≈ 442 µg/mL). For the same compound, in series [3] (pH 7.4, shake flask), the solubility was more than 1000 µM. Further, in series [3] (setting [6]), the “S0, exp [µM]” value was 1780 µM·days.
`c1csc(Sc2ncnc3sccc23)n1` [Compound 8d]: the 50% inhibitory concentration (IC50) was more than 10 µM in series [1] and 27.5 µM in series [2]. Besides, the “Log S0, exp” value in series [3] (setting [4]) was −4.44. Moreover, the solubility thermodynamic in series [3] (setting [5]) was determined as 36.4 µM (≈ 9.15 µg/mL).
With `c1coc(Sc2ncnc3sccc23)n1` [Compound 8e], the IC50 in series [1] was more than 10 µM; in series [2], 33.6 µM. Further, the “selectivity HEK-293 vs 3D7 parasites” value in series [1] (IC50 HEK-293 / IC50 3D7) is given as more than 133 fold. Further, the “selectivity THP-1 vs 3D7 parasites” value in series [2] (IC50 THP-1 / IC50 3D7) is 450 fold. Also, in series [2] (human cell lines vs 3D7), the “selectivity toward human cell lines” value was more than 100 fold. Further, in series [3] (setting [4]), the “Log S0, exp” value is −2.88. Also, the solubility in series [3] (pH 7.4, shake flask) turned out to be 1330 µM (≈ 313 µg/mL). Moreover, the aqueous solubility in series [3] (pH 7.4, shake flask, listed as 8e (KuWei173)) was more than 1000 µM. In addition, in series [3] (setting [6]), the “S0, exp [µM]” value is 1.33 × 10^3 c µM.
Turning to `Nc1nnc(Sc2ncnc3sccc23)s1` [Compound 8f], the IC50 in series [1] was more than 4 µM; in series [2] it was 11 µM. Also, the “Log S0, exp” value in series [3] (setting [4]) is given as −5.36. Further, in series [3] (setting [5]), the solubility thermodynamic worked out at 4.4 µM (≈ 1.18 µg/mL).
On to `c1ccc2[nH]c(Sc3ncnc4sccc34)nc2c1` [Compound 8g], for which the values for the IC50 in series [1] and in series [2] were more than 10 µM and 16.5 µM, respectively. In addition, the “Log S0, exp” value in series [3] (setting [4]) is −6.37.
On to `c1cnc2[nH]c(Sc3ncnc4sccc34)nc2c1` [Compound 8k], for which the results for the IC50 in series [1] and in series [2] were more than 20 µM and 28 µM, respectively. For the same compound, in series [3] (setting [4]), the “Log S0, exp” value is listed as −4.11. For the same compound, the solubility thermodynamic in series [3] (setting [5]) was determined as 77 µM (≈ 22 µg/mL).

A word on the IC50: it is the concentration at which inhibition is half-maximal. For orientation: solubility means how much of the substance goes into solution per volume. Higher therefore signals much dissolved substance. As a reminder, the aqueous solubility is the dissolved amount per volume that the medium holds. High values mean much dissolved substance, low ones little dissolved substance.

Values taken from publication PMC5430599, “Antiplasmodial dihetarylthioethers target the coenzyme A synthesis pathway in Plasmodium falciparum erythrocytic stages” (Malaria Journal, 2017).
